# Counter-ions that a name gives are not always drawn.
# Test system: T1, 1N4R p-tau
# T1 construct: made in house; host or cells: E. coli (PIMAX system)
# Assay: p-tau aggregation modulator screen of 1280-compound library (ThS fluorescence net change over 16 h);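 as to ThS net change: 30 µM compound with 6 µM p-tau over 16 h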
# Format: biochemical
# Design: key to PTAI>3SD: *: PTAI>3SD
# Details: not given
row,Molecule,ThS net change
1,Cc1cc(C(C)(C)C)cc(C)c1CC1=NCCN1 [Xylometazoline hydrochloride],295
2,C[C@]12C[C@H]3S[C@H]3C[C@@H]1CC[C@@H]1[C@@H]2CC[C@]2(C)[C@@H](O)CC[C@@H]12 [Epitiostanol],421
3,CCN(C)C(=O)Oc1cccc([C@H](C)N(C)C)c1 [Rivastigmine],462

# Same assay, conditions: 1280-compound library screen; ThS fluorescence net change over 16 h
row,Molecule,ThS net change
1,Cc1c(NC(C)C)c(=O)n(-c2ccccc2)n1C.Cl [Isopyrin hydrochloride],380
2,NNC(=O)c1ccncc1 [Isoniazid],404
3,CN(C)/N=N/c1[nH]cnc1C(N)=O [Dacarbazine],392
4,Minoxidil,412
5,COc1ccc(C2CNC(=O)C2)cc1OC1CCCC1 (stereo not drawn) [Rolipram],406
6,COc1c(N2C[C@@H]3CCCN[C@@H]3C2)c(F)cc2c(=O)c(C(=O)O)cn(C3CC3)c12 [Moxifloxacin],413
7,NS(=O)(=O)c1cc(Cl)c(Cl)c(S(N)(=O)=O)c1 [Dichlorphenamide],404
8,COc1cc(C)nc(-n2nc(C)cc2OC)n1 [Epirizole],389
9,NC[C@H]1CC[C@H](C(=O)O)CC1 [Tranexamic acid],409
10,CC(CN(C)C)CN1c2ccccc2CCc2ccccc21.O=C(O)/C=C\C(=O)O (stereo not drawn) [Trimipramine maleate salt],399
11,C1N2CN3CN1CN(C2)C3 [Methenamine],391
12,COc1ccc(C(=O)c2ccccc2)c(O)c1 [Oxybenzone],383
13,CC(C(=O)O)c1ccc(C(=O)c2ccccc2)s1 (stereo not drawn) [Tiaprofenic acid],381
14,COc1cc(NS(=O)(=O)c2ccc(N)cc2)nc(OC)n1 [Sulfadimethoxine],380
15,CCN1C(=O)NC(c2ccccc2)C1=O (stereo not drawn) [Ethotoin],394
16,Nc1ccc(S(=O)(=O)Nc2ncccn2)cc1 [Sulfadiazine],379
17,COc1ccccc1OCC(O)COC(N)=O (stereo not drawn) [Methocarbamol],409
18,Nc1ccc(S(=O)(=O)Nc2ccccn2)cc1 [Sulfapyridine],394
19,CCN(CC)CCOCCOC(=O)C1(c2ccccc2)CCCC1 [Carbetapentane citrate],402
20,CN(C)CC/C=C1/c2ccccc2Sc2ccc(Cl)cc21 [Chlorprothixene hydrochloride],392
21,COc1ccc(Cl)cc1C(=O)NCCc1ccc(S(=O)(=O)NC(=O)NC2CCCCC2)cc1 [Glibenclamide],391
22,Cc1c(N)c(=O)n(-c2ccccc2)n1C [Ampyrone],388

# Same assay, conditions: 1280-compound library screen; […]
row,Molecule,ThS net change
1,CC(C)C[C@H](CN)CC(=O)O [Pregabalin],400
2,CC(=O)O[C@H]1C[C@@H]2CC[C@@H]3[C@H](CC[C@@]4(C)[C@H]3C[C@H]([N+]3(C)CCCCC3)[C@@H]4OC(C)=O)[C@@]2(C)C[C@@H]1N1CCCCC1 [Vecuronium bromide],382
3,C(#CCN1CCCC1)CN1CCCC1.Cl.Cl [Tremorine dihydrochloride],391
4,COc1cc([C@@H]2c3cc4c(cc3[C@H](O)[C@H]3COC(=O)[C@H]23)OCO4)cc(OC)c1OC [Podophyllotoxin],402
5,Cc1ccsc1/C=C/C1=NCCCN1C [Morantel tartrate],398
6,CCN[C@@H](C)Cc1cccc(C(F)(F)F)c1 [Dexfenfluramine hydrochloride],397

# Same assay, conditions: flag: p-tau aggregation inhibitor, ThS net change more than 3 SD from mean
row,Molecule,PTAI>3SD
1,O=C1c2c(O)cccc2Cc2cccc(O)c21 [Anthralin],*

# Same assay, conditions: library screen, ThS fluorescence net change over 16 h with p-tau
row,Molecule,ThS net change
1,O=C1CN(/N=C/c2ccc([N+](=O)[O-])o2)C(=O)N1 [Nitrofurantoin],303
2,CN1CCN(CC(=O)N2c3ccccc3C(=O)Nc3cccnc32)CC1 [Pirenzepine dihydrochloride],322
3,CN(C)CCCOc1nn(Cc2ccccc2)c2ccccc12 [Benzydamine hydrochloride],310
4,CCOC(=O)c1ccc(OC(=O)CCCCCNC(=N)N)cc1.CS(=O)(=O)O [Gabexate mesilate],305
5,CC[C@H]1OC(=O)[C@H](C)[C@@H](O[C@H]2C[C@@](C)(OC)[C@@H](O)[C@H](C)O2)[C@H](C)[C@@H](O[C@@H]2O[C@H](C)C[C@H](N(C)C)[C@H]2O)[C@](C)(O)C[C@@H](C)C(=O)[C@H](C)[C@@H](O)[C@]1(C)O [Erythromycin],314
6,CC(=O)c1ccc2c(c1)N(CCCN1CCC(CCO)CC1)c1ccccc1S2 [Piperacetazine],243
7,OC(c1cc(C(F)(F)F)nc2c(C(F)(F)F)cccc12)C1CCCCN1 (stereo not drawn) [Mefloquine hydrochloride],304
8,O=C1c2c(O)cccc2Cc2cccc(O)c21 [Anthralin],85

# Same assay, conditions: p-tau aggregation modulator screen of 1280-compound library; ThS fluorescence net change
row,Molecule,ThS net change
1,CN(CCCN1c2ccccc2CCc2ccccc21)CC(=O)c1ccc(Cl)cc1 [Lofepramine],375
2,COC(=O)C1=C(C)NC(C)=C(C(=O)OC(C)C)C1c1cccc2nonc12 (stereo not drawn) [Isradipine],372
3,CC1(C)NC(=O)N(c2ccc([N+](=O)[O-])c(C(F)(F)F)c2)C1=O [Nilutamide],363
4,CC(C)(C)NC[C@@H](O)COc1cccc2c1CCCC2=O.Cl [(+) -Levobunolol hydrochloride],350
5,CC(=O)Oc1cc(C(F)(F)F)ccc1C(=O)O [Triflusal],343
6,COc1ccc2[nH]c([S+]([O-])Cc3ncc(C)c(OC)c3C)nc2n1 (stereo not drawn) [Tenatoprazole],371
7,CC(C)N(CCC(C(N)=O)(c1ccccc1)c1ccccn1)C(C)C (stereo not drawn) [Disopyramide],377
8,Nc1nc2c(ncn2COCCO)c(=O)[nH]1 [Acyclovir],367
9,C=C1C[C@@H]2[C@H](CC[C@]3(C)C(=O)CC[C@@H]23)[C@@]2(C)C=CC(=O)C=C12 [Exemestane],373
10,CC(=O)[C@H]1CC[C@H]2[C@@H]3C=CC4=CC(=O)CC[C@@]4(C)[C@@H]3CC[C@]12C [Dydrogesterone],371
11,CC(C)(C)NC(=O)[C@H]1CC[C@H]2[C@@H]3CC[C@H]4NC(=O)C=C[C@]4(C)[C@H]3CC[C@]12C [Finasteride],346
12,CN(C)CCOC(c1ccccc1)c1ccccc1.Cn1c(=O)c2[nH]c(Cl)nc2n(C)c1=O [Dimenhydrinate],345
13,NS(=O)(=O)c1cc(C(=O)O)c(NCc2ccco2)cc1Cl [Furosemide],360
14,O=C(O)/C=C\C(=O)O.O=C(O)/C=C\C(=O)O.c1ccc2nc(N3CCNCC3)ccc2c1 [Quipazine dimaleate salt],377
15,CCC[C@@H]1C[C@@H](C(=O)N[C@@H]([C@H]2O[C@H](SC)[C@H](O)[C@@H](O)[C@H]2O)[C@@H](C)O)N(C)C1 [Lincomycin hydrochloride],367
16,"CN(Cc1cnc2nc(N)nc(N)c2n1)c1ccc(C(=O)NC(CCC(=O)O)C(=O)O)cc1 (racemic) [Amethopterin (R,S)]",373
17,CC(C)(C)NCC(O)COc1cccc2c1CCC(=O)N2 (stereo not drawn) [Carteolol hydrochloride],377
18,CCn1cc(C(=O)O)c(=O)c2cc(F)c(N3CCNCC3)nc21 [Enoxacin],378
19,C=CCN1CC[C@]23c4c5ccc(O)c4O[C@H]2C(=O)CC[C@@]3(O)[C@H]1C5 [Naloxone hydrochloride],349

# Same assay, conditions: p-tau aggregation modulator screen of 1280-compound library; […]
row,Molecule,ThS net change
1,CN1C[C@H](C(=O)N[C@]2(C)O[C@@]3(O)[C@@H]4CCCN4C(=O)[C@H](Cc4ccccc4)N3C2=O)CC2c3cccc4[nH]cc(c34)C[C@H]21.CN1C[C@H](C(=O)N[C@]2(C)O[C@@]3(O)[C@@H]4CCCN4C(=O)[C@H](Cc4ccccc4)N3C2=O)C[C@@H]2c3cccc4[nH]cc(c34)C[C@H]21.O=C(O)C(O)C(O)C(=O)O (stereo partly drawn) [Dihydroergotamine tartrate],342
2,C[N+](C)(C)CCCCCC[N+](C)(C)C.O.O.[Br-].[Br-] [Hexamethonium dibromide dihydrate],342
3,Cc1cc2c(s1)Nc1ccccc1N=C2N1CCN(C)CC1 [Olanzapine],345

# Same assay, conditions: p-tau aggregation modulator screen of the compound library, ThS fluorescence net change
row,Molecule,ThS net change
1,CC(=O)CC(c1ccc([N+](=O)[O-])cc1)c1c(O)c2ccccc2oc1=O (stereo not drawn) [Acenocoumarol],568
2,CCCCC[C@H](O)/C=C/[C@H]1[C@H](O)CC(=O)[C@@H]1CCCCCCC(=O)O [Alprostadil],445
3,CCC(=O)[C@@]1(C)[C@H](C)C[C@H]2[C@@H]3CCC4=CC(=O)C=C[C@]4(C)[C@H]3[C@@H](O)C[C@@]21C [Rimexolone],434
4,C=C1CC[C@@]2(O)[C@H]3Cc4ccc(O)c5c4[C@@]2(CCN3CC2CC2)[C@H]1O5 [Nalmefene hydrochloride],418
5,C=C1C(=O)O[C@H]2[C@H]1CC/C(C)=C/CC[C@@]1(C)O[C@@H]21 [Parthenolide],434
6,CCOc1nc2cccc(C(=O)O)c2n1Cc1ccc(-c2ccccc2-c2nnn[nH]2)cc1 [Candesartan],415
7,C=CC1=C(C(=O)O)N2C(=O)[C@@H](NC(=O)/C(=N\O)c3csc(N)n3)[C@H]2SC1 [Cefdinir],454
8,CN(C)CC/C=C1/c2ccccc2COc2ccc(CC(=O)O)cc21 [Olopatadine hydrochloride],439
9,CCC1=C(C)CN(C(=O)NCCc2ccc(S(=O)(=O)NC(=O)N[C@H]3CC[C@H](C)CC3)cc2)C1=O [Glimepiride],415
10,CC[C@H](C)C(=O)O[C@H]1C[C@H](O)C=C2C=C[C@H](C)[C@H](CC[C@@H](O)C[C@@H](O)CC(=O)O)[C@H]21 [Pravastatin],467
11,Cc1[nH]c(=O)c(C#N)cc1-c1ccncc1 [Milrinone],423
12,O=c1[nH]c(=O)n([C@H]2C[C@H](O)[C@@H](CO)O2)cc1C(F)(F)F [Trifluridine],463
13,CCCc1nc2c(C)cc(-c3nc4ccccc4n3C)cc2n1Cc1ccc(-c2ccccc2C(=O)O)cc1 [Telmisartan],454

# Source: article PMC7539012, “Hyperphosphorylated tau aggregation and cytotoxicity modulators screen identified prescription drugs linked to Alzheimer's disease and cognitive functions” (Scientific Reports, 2020)
